# Assay results: ChEMBL document CHEMBL4400515, “Anti-parasitic activity of polyether ionophores” (Eur J Med Chem, 2019)
# Columns and labels:
# Eimeria tenella = assay: Coccidiostat activity against Eimeria tenella infected in po dosed chicken; assay type: functional
# Plasmodium berghei = assay: Antimalarial activity against Plasmodium berghei infected in po dosed mouse; assay type: functional
# Plasmodium falciparum [1] = assay: Antimalarial activity against Plasmodium falciparum Nigerian infected in human red blood cells after 48 hrs by [3H]-hypoxanthine incorporation assay; assay type: functional, organism-based
# Plasmodium chabaudi = assay: Antiplasmodial activity against Plasmodium chabaudi infected in Swiss mouse assessed as reduction in parasitemia administered twice daily via ip for 4 days starting from 1.5 hrs post infection; assay type: functional
# Trypanosoma brucei [2] = assay: Antitrypanosomal activity against bloodstream form of Trypanosoma brucei clone 427-221a measured after 72 hrs by resazurin dye based assay; assay type: functional
# Trypanosoma brucei [3] = assay: Antitrypanosomal activity against bloodstream form of Trypanosoma brucei clone 427-221a measured after 72 hrs by microscopic analysis; assay type: functional
# [4] = tested on: Plasmodium vinckei petteri; assay: Antimalarial activity against Plasmodium vinckei petteri infected in IOPS OF1 mouse assessed as reduction in parasitemia administered once daily via sc for 4 days; assay type: functional; conditions: 96 h
# Leishmania donovani [5] = assay: Antileishmanial activity against Leishmania donovani MHOM/SD/00/1S-2D promastigotes by luminescence assay; assay type: functional, organism-based
# Leishmania donovani [6] = assay: Antileishmanial activity against Leishmania donovani MHOM/SD/001S-2D promastigotes transformed from splenic cultures of infected Chester Beatty hamster measured after 48 hrs by CellTiter-Glo luminescent cell viability assay; assay type: functional, organism-based
# Leishmania donovani [7] = assay: Antileishmanial activity against Leishmania donovani MHOM/SD/001S-2D […] measured after 48 hrs by CellTiter-Glo luminescent cell viability assay; assay type: functional, organism-based
# Leishmania major [8] = assay: Antileishmanial activity against promastigote stage of Leishmania major MHOM/IL/81/Friedlin transformed from lymph node cultures of infected Balb/c mouse measured after 48 hrs by luminometry; assay type: functional, organism-based
# Leishmania major [9] = assay: Antileishmanial activity against […] measured after 48 hrs by luminometry; assay type: functional, organism-based
# [10] = tested on: Plasmodium vinckei petteri; assay: Antimalarial activity against Plasmodium vinckei petteri infected in IOPS OF1 mouse assessed as reduction in parasitemia at 10 mg/kg, sc administered once daily for 4 days relative to control; assay type: functional; design: scale not given: the % may be the effect or the level left
# Toxoplasma gondii = assay: Antiparasitic activity against Toxoplasma gondii infected in Scottish Blackface ewes assessed as mortality at 16.8 to 27.9 mg administered daily for 10 days prior to parasitic infection (reference value: 55.2%); assay type: functional
# Cryptosporidium parvum [11] = assay: Antiparasitic activity against Cryptosporidium parvum GP-60 subtype 2a A15G2RI infected in human HCT8 cells assessed as inhibition of parasite development at 0.144 uM measured 27 hrs post infection by qPCR analysis; assay type: functional; conditions: HCT-8, 27 h
# Schistosoma mansoni = assay: Antiparasitic activity against Schistosoma mansoni Puerto Rico PR-1 after 48 hrs by fluorescence based lactate release assay; assay type: functional, organism-based; conditions: Puerto Rico PR-1, 48 h
# Plasmodium falciparum [12] = assay: Antiplasmodial activity against trophozoite stage of Plasmodium falciparum 3D7 measured after 48 hrs by [3H]-hypoxanthine incorporation assay; assay type: functional, organism-based
# Cryptosporidium parvum [13] = assay: Antiparasitic activity against Cryptosporidium parvum infected in CB.17 SCID mouse assessed as faecal parasite load at 3 mg/kg, administered once daily for 3 days by OW50-FITC staining based flow cytometry relative to control; assay type: functional
smiles,measurement,setting,value
CC[C@@]1([C@@H]2O[C@@H]([C@H]3O[C@@](O)(COC(=O)Nc4ccc(C)cc4)[C@H](C)C[C@@H]3C)C[C@@H]2C)CC[C@H]([C@]2(C)CC[C@]3(C[C@H](O)[C@@H](C)[C@@H]([C@@H](C)[C@@H](OC)[C@@H](C)C(=O)[O-])O3)O2)O1.[Na+],ED50,Eimeria tenella,70 ppm
CC[C@@]1([C@@H]2O[C@@H]([C@H]3O[C@@]4(COC(=O)O4)[C@H](C)C[C@@H]3C)C[C@@H]2C)CC[C@H]([C@]2(C)CC[C@]3(C[C@H](O)[C@@H](C)[C@@H]([C@@H](C)[C@@H](OC)[C@@H](C)C(=O)O)O3)O2)O1,ED50,Plasmodium berghei,0.75 mg/kg
CC[C@@]1([C@@H]2O[C@@H]([C@H]3O[C@@](O)(COC(=O)Nc4ccc(I)cc4)[C@H](C)C[C@@H]3C)C[C@@H]2C)CC[C@H]([C@]2(C)CC[C@]3(C[C@H](O)[C@@H](C)[C@@H]([C@@H](C)[C@@H](OC)[C@@H](C)C(=O)[O-])O3)O2)O1.[Na+],ED50,Plasmodium berghei,5 mg/kg
CC[C@@]1([C@@H]2O[C@@H]([C@H]3O[C@@](O)(COS(=O)(=O)c4ccc(C)cc4)[C@H](C)C[C@@H]3C)C[C@@H]2C)CC[C@H]([C@]2(C)CC[C@]3(C[C@H](O)[C@@H](C)[C@@H]([C@@H](C)[C@@H](OC)[C@@H](C)C(=O)O)O3)O2)O1,ED50,Plasmodium berghei,1.25 mg/kg
CC[C@@]1([C@@H]2O[C@@H]([C@H]3O[C@@](O)(COC(=O)Nc4ccccc4)[C@H](C)C[C@@H]3C)C[C@@H]2C)CC[C@H]([C@]2(C)CC[C@]3(C[C@H](O)[C@@H](C)[C@@H]([C@@H](C)[C@@H](OC)[C@@H](C)C(=O)[O-])O3)O2)O1.[Na+],ED50,Plasmodium berghei,4 mg/kg
CC[C@@H](C(=O)[C@@H](C)[C@@H](O)[C@H](C)CCc1c(Br)cc(C)c(O)c1C(=O)[O-])[C@H]1O[C@](CC)([C@H]2CC[C@](O)(CC)[C@H](C)O2)C[C@@H]1C.[Na+],IC50,Plasmodium falciparum [1],0.069 µg/mL
same,ED50,Plasmodium chabaudi,1.4 mg/kg
CCCCNC(=O)[C@H](CC)[C@H]1CC[C@H](C)[C@H]([C@@H](C)[C@H](O)[C@H](C)C(=O)[C@H](CC)[C@H]2O[C@]3(C=C[C@@H](O)[C@]4(CC[C@@](C)([C@H]5CC[C@](O)(CC)[C@H](C)O5)O4)O3)[C@H](C)C[C@@H]2C)O1,MIC,Trypanosoma brucei [2],0.1 µM
same,GI50,Trypanosoma brucei [3],40 nM
CC[C@@H](C(=O)[C@@H](C)[C@@H](O)[C@H](C)[C@@H]1O[C@@H]([C@@H](CC)C(=O)OCC(F)(F)F)CC[C@@H]1C)[C@H]1O[C@]2(C=C[C@@H](O)[C@]3(CC[C@@](C)([C@H]4CC[C@](O)(CC)[C@H](C)O4)O3)O2)[C@H](C)C[C@@H]1C,MIC,Trypanosoma brucei [2],0.1 to 1 µM
same,GI50,Trypanosoma brucei [3],57 nM
CC[C@@]1([C@@H]2O[C@@H]([C@H]3O[C@@](O)(COC(=O)Nc4ccc([N+](=O)[O-])cc4)[C@H](C)C[C@@H]3C)C[C@@H]2C)CC[C@H]([C@]2(C)CC[C@]3(C[C@H](O)[C@@H](C)[C@@H]([C@@H](C)[C@@H](OC)[C@@H](C)C(=O)[O-])O3)O2)O1.[Na+],ED50,Plasmodium berghei,5 mg/kg
CO[C@@H]1C[C@@H](C[C@H]2CC[C@H](C)[C@H]([C@@H](C)C(=O)O)O2)O[C@]2(O[C@](C)([C@H]3CC[C@@](C)([C@@H]4O[C@@H]([C@H]5O[C@@](O)(CO)[C@H](C)C[C@@H]5C)C[C@@H]4C)O3)C[C@H]2C)[C@@H]1C [NIGERICIN],ED50,[4],1.8 mg/kg
same,ED90,[4],4.6 mg/kg
CC[C@@H](C(=O)O)[C@@H]1O[C@@H]([C@@H](C)[C@H](O)[C@H](C)C(=O)[C@H](CC)[C@H]2O[C@]3(C=C[C@@H](O)[C@]4(CC[C@@](C)([C@H]5CC[C@](O)(CC)[C@H](C)O5)O4)O3)[C@H](C)C[C@@H]2C)[C@@H](C)C[C@@H]1C [NARASIN],EC50,Leishmania donovani [5],2000 nM
CC[C@@]1([C@@H]2O[C@@H]([C@H]3O[C@@](O)(COC(=O)Nc4ccc(Oc5ccccc5)cc4)[C@H](C)C[C@@H]3C)C[C@@H]2C)CC[C@H]([C@]2(C)CC[C@]3(C[C@H](O)[C@@H](C)[C@@H]([C@@H](C)[C@@H](OC)[C@@H](C)C(=O)[O-])O3)O2)O1.[Na+],ED50,Plasmodium berghei,8 mg/kg
CC[C@@]1([C@@H]2O[C@@H]([C@H]3O[C@@](O)(COC(=O)Nc4ccc(Cl)cc4)[C@H](C)C[C@@H]3C)C[C@@H]2C)CC[C@H]([C@]2(C)CC[C@]3(C[C@H](O)[C@@H](C)[C@@H]([C@@H](C)[C@@H](OC)[C@@H](C)C(=O)[O-])O3)O2)O1.[Na+],ED50,Plasmodium berghei,2 mg/kg
CC[C@@]1([C@@H]2O[C@@H]([C@H]3O[C@@](O)(CO)[C@H](C)C[C@@H]3C)C[C@@H]2C)CC[C@H]([C@]2(C)CC[C@]3(C[C@H](O)[C@@H](C)[C@@H]([C@@H](C)[C@@H](OC)[C@@H](C)C(=O)O)O3)O2)O1,EC50,Leishmania donovani [6],850 nM
same,EC50,Leishmania donovani [7],230 nM
same,EC50,Leishmania major [8],90 nM
same,EC50,Leishmania major [9],380 nM
same,ED50,[4],1.1 mg/kg
same,ED90,[4],3.5 mg/kg
same,Activity,[10],100%
same,Activity,Toxoplasma gondii,16.7%
same,inhibition at 0.144 µM,Cryptosporidium parvum [11],98%
CC[C@@]1([C@@H]2O[C@@H]([C@H]3O[C@@](O)(COC(=O)Nc4ccc(F)cc4)[C@H](C)C[C@@H]3C)C[C@@H]2C)CC[C@H]([C@]2(C)CC[C@]3(C[C@H](O)[C@@H](C)[C@@H]([C@@H](C)[C@@H](OC)[C@@H](C)C(=O)[O-])O3)O2)O1.[Na+],ED50,Eimeria tenella,70 ppm
CC[C@@H](C(=O)[C@@H](C)[C@@H](O)[C@H](C)[C@@H]1O[C@@H]([C@@H](CC)C(=O)O)CC[C@@H]1C)[C@H]1O[C@]2(C=C[C@@H](O)[C@]3(CC[C@@](C)([C@H]4CC[C@](O)(CC)[C@H](C)O4)O3)O2)[C@H](C)C[C@@H]1C [SALINOMYCIN],EC50,Leishmania donovani [5],4000 nM
same,IC50,Schistosoma mansoni,32600 nM
CC[C@@]1([C@@H]2O[C@@H]([C@H]3O[C@@](O)(COC(=O)NCCc4ccccc4)[C@H](C)C[C@@H]3C)C[C@@H]2C)CC[C@H]([C@]2(C)CC[C@]3(C[C@H](O)[C@@H](C)[C@@H]([C@@H](C)[C@@H](OC)[C@@H](C)C(=O)[O-])O3)O2)O1.[Na+],ED50,Eimeria tenella,50 ppm
CC[C@@]1([C@@H]2O[C@@H]([C@H]3O[C@@](O)(COC(=O)Nc4ccc(Br)cc4)[C@H](C)C[C@@H]3C)C[C@@H]2C)CC[C@H]([C@]2(C)CC[C@]3(C[C@H](O)[C@@H](C)[C@@H]([C@@H](C)[C@@H](OC)[C@@H](C)C(=O)[O-])O3)O2)O1.[Na+],ED50,Plasmodium berghei,16 mg/kg
CO[C@@H]1[C@@H](OC)[C@H](C)[C@@](O)(CC(=O)O)O[C@H]1[C@H](C)[C@H]1O[C@@]2(CC[C@@](C)([C@H]3CC[C@@](C)([C@@H]4O[C@@H]([C@H]5O[C@](C)(O)[C@H](C)C[C@@H]5C)C[C@@H]4O[C@@H]4C[C@@H](OC)[C@@H](OC)[C@H](C)O4)O3)O2)C[C@H](O)[C@H]1C,EC50,Plasmodium falciparum [12],0.44 nM
same,Activity,Cryptosporidium parvum [13],96%
